The source made the active and inactive calls.
Tests used:
[1] = Luminescence Cell-Based Dose Confirmation HTS to Identify Inhibitors of Platelet Dense Granule Release. [Related pubchem assays: 1663 (Primary HTS), 1678 (Summary of Project)]; assay type: functional
[2] = molecular target: Beta-galactosidase (Escherichia coli, UniProt Q8VNN2); assay: Dose response counterscreen for EBI2 assay utilizing the enzyme, b-galactosidase.; assay type: functional
[3] = molecular target: Luciferin 4-monooxygenase (Photinus pyralis, UniProt P08659); assay: firefly luciferase enzyme inhibitors, dose response, biochemical, luminescence (AID 1891)
Chain of Luciferin 4-monooxygenase (P08659 whole entry): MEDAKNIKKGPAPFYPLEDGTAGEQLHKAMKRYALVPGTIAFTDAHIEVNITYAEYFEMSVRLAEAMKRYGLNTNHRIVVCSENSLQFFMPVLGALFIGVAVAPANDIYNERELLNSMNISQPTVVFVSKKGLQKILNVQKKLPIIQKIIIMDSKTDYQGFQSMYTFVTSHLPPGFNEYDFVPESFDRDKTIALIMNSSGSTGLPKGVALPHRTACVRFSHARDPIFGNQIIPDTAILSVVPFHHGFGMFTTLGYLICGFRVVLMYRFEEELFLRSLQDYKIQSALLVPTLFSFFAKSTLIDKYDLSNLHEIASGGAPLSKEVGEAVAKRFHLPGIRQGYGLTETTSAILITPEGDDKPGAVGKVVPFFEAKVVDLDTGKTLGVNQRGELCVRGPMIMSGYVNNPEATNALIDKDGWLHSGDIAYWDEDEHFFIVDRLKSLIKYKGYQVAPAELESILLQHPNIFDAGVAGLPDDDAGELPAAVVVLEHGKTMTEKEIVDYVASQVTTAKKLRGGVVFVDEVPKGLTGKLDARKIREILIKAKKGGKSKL

[4] = molecular target: T1, Bcl-2-related protein A1 (Mus musculus, UniProt Q07440); assay: Bfl-1 inhibitors blocking BH3 peptide binding, confirmation, biochemical, TR-FRET, mouse Bfl-1 (AID 621);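 note: TR-FRET binding of GST-Bfl-1 to FITC-labelled Bid peptide via terbium antibody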
T1 sequence (Q07440 whole entry): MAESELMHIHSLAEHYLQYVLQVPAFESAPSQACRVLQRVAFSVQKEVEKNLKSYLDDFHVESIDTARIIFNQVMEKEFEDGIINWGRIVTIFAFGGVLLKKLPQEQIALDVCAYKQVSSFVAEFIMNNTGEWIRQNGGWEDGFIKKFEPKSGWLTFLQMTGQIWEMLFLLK

[5] = molecular target: T1, Bcl-2-related protein A1; assay: Bfl-1 binding inhibitors, SAR follow-up, biochemical, fluorescence polarization (AID 1070)
[6] = molecular target: Glyceraldehyde-3-phosphate dehydrogenase (Homo sapiens, UniProt P04406)
Chain of Glyceraldehyde-3-phosphate dehydrogenase (P04406 whole entry): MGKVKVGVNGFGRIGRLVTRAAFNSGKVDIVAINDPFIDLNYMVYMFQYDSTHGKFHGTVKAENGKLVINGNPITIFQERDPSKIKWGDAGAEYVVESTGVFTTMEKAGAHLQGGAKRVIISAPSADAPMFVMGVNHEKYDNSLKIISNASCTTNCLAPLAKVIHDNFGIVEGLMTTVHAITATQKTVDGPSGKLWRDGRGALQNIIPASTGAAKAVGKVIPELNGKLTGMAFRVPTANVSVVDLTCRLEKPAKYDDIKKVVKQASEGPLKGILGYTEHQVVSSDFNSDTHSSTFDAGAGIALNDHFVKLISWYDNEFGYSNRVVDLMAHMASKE

[7] = molecular target: T2, Cytochrome P450 1A2 (Homo sapiens, UniProt P05177);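 note: PubChem cytochrome P450 panel assay, CYP1A2 panel member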
T2 sequence (P05177 whole entry): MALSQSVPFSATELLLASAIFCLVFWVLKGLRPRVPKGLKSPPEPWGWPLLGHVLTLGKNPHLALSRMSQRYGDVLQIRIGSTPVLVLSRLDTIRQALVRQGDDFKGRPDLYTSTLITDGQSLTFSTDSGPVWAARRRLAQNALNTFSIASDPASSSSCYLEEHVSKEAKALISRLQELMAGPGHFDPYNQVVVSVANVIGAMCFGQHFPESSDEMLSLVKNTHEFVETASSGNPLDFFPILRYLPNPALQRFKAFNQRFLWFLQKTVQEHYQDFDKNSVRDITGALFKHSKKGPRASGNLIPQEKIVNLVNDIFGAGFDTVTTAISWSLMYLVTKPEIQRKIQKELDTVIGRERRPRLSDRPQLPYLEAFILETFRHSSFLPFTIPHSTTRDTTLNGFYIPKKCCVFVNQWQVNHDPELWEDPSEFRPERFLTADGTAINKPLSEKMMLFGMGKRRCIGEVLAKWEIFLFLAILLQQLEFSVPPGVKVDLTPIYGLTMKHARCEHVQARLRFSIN

[8] = Vero cell cytotoxicity, dose response, cytotoxicity control for Vif-APOBEC3G degradation inhibitor project, Vero cells (AID 1117358); assay type: functional; settings: Human immunodeficiency virus 1, Vero
[9] = molecular target: Prothrombin (Homo sapiens, UniProt P00734); assay: Thrombin 1536 HTS Dose Response Confirmation. [Related pubchem assays: 1046 (Thrombin 1536 HTS; hits were confirmed in this assay)]; assay type: functional
[10] = molecular target: T3, Mannose-6-phosphate isomerase (Homo sapiens, UniProt P34949); assay: human PMI inhibitors, high substrate, primary screen, biochemical, fluorescence intensity, high mannose 6-phosphate (AID 1220)
T3 sequence (P34949 whole entry): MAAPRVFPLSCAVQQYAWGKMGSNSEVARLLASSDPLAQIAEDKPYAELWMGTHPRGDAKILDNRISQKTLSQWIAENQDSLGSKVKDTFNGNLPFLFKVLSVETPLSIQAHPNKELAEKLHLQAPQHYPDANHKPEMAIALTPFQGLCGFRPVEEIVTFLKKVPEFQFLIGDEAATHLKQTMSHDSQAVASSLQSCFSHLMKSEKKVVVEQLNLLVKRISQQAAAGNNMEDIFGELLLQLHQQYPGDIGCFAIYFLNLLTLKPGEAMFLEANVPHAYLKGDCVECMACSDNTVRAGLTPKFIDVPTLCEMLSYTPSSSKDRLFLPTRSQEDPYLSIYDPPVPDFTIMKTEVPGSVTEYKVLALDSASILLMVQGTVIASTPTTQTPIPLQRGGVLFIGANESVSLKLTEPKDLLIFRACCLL

[11] = cytotoxicity in HPDE-C7 cells, cell-based, fluorescence, HTS (AID 430); assay type: functional; settings: Homo sapiens
[12] = cytotoxicity in KRAS-transformed pancreatic duct cells, primary screen, cell-based, fluorescence, HTS (AID 431); assay type: functional; settings: Homo sapiens;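 note: cell line used: HPDE-C7K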
[13] = cells; assay type: functional
[14] = MC4R antagonists, dose response, counter-screen for LGR2 antagonist project, cell-based, plate reader, cherry pick (AID 743444); assay type: functional;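 note: transfected HEK 293 cells stimulated with alpha-MSH peptide; potency of inhibitors of the alpha-MSH evoked signal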
[15] = molecular target: T4, Heat shock factor protein 1 (Mus musculus, UniProt P38532); assay: inhibition of MG132-induced HSE-luciferase signal, confirmation, cell-based, NIH3T3, luminescence, dose retest (AID 2382); assay type: functional;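 note: NIH3T3 fibroblasts with HSF1-driven luciferase reporter stressed by proteasome inhibitor MG132; luminescence from HSF1-driven luciferase expression after 8 hours of MG132 stress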
T4 sequence (P38532 whole entry): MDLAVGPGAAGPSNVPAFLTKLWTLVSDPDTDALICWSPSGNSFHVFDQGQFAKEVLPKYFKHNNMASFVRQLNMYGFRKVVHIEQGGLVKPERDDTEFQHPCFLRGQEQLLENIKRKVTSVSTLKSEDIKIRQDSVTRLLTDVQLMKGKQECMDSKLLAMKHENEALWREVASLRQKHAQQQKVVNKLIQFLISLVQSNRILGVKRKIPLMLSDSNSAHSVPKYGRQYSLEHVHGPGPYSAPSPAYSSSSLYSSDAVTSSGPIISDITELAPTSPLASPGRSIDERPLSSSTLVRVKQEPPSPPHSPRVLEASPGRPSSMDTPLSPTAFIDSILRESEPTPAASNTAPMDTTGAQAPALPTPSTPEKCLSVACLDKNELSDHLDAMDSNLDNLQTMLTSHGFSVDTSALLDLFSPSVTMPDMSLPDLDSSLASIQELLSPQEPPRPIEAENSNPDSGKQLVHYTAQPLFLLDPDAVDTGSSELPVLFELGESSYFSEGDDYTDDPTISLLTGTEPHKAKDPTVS

[16] = LGR2 antagonists, dose response, cell-based, HEK293, CRE-luciferase reporter, cherry pick, set 2 (AID 743343); assay type: functional;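 note: transfected cells were stimulated with diluted bursicon conditioned medium after compound addition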
[17] = test system: HEK293; assay: inhibitors of LMP1-driven NF-kB reporter, dose response, cell-based, HEK293, luciferase, cherry-pick (AID 588343); assay type: functional; settings: Homo sapiens
[18] = A Cell Based Secondary Assay To Explore Cytotoxicity of Compounds that Sensitize Mycobacterium Tuberculosis to Beta-Lactam Antibiotics.; assay type: functional
[19] = growth suppression of beta-catenin-knockout colon cells, dose response, cell-based, HCT116, human colon tumor (AID 1045); assay type: functional;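 note: HCT116 colon tumor cells with beta catenin knocked out; cells exposed to compound for 60 hours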
[20] = ZM109 Env clade C HIV-1 fusion inhibitors, dose response, HeLa effector, CEM target cells, luciferase, cherry-pick (AID 652058); assay type: functional, cell-based
[21] = inhibitors of clade B AD8 Env fusion, dose response, cell-based, cherry-pick (AID 652062); assay type: functional;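 note: luciferase signal from cell-cell fusion driven by HIV-1 clade B AD8 Env; potency is for inhibitors of fusion seen as a drop in luminescence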
[22] = growth suppression of PTEN-null colon cells, dose response, cell-based, HCT116 PTEN knockout (AID 1047); assay type: functional;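 note: HCT116 colon tumor cells with PTEN knocked out; cells exposed to compound for 60 hours before readout; potency for loss of cell viability measured by luminescence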
[23] = CEM21 lymphoblast cell cytotoxicity, dose response, cytotoxicity control for viral fusion inhibitor project, CellTiter-Glo luminescence, cherry-picked (AID 652042); assay type: functional, cell-based;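 note: potency for signal decrease meaning cytotoxicity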
[24] = off-target signal loss in HeLa-CEM21 co-culture – HeLa F-luc CTL cells, cherry-picked, counter-screen for HIV-1 Env fusion inhibitor project, dose response (AID 652040); assay type: functional, cell-based;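 note: potency for signal decrease marking cytotoxic or nonspecific inhibition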
[25] = P. falciparum Dd2 growth inhibitors, dose response, SYBR Green, cherry-picked samples (AID 1159567); assay type: functional, cell-based
[26] = HepG2 cell cytotoxicity, dose response, cytotoxicity control, cherry-picked samples (AID 1159577); assay type: functional, cell-based
[27] = miR-122 activators in hepatoma reporter cells, dose response, cell-based, Huh7 psiCHECK-miR122, Renilla luciferase, cherry-picked (AID 651956); assay type: functional;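 note: huh7 hepatoma cells stably carrying a psiCHECK-2 miR-122 sensor plasmid; renilla luciferase signal reporting endogenous miR-122 activity after 48 h compound exposure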
[28] = inhibitors of HIV Env-driven cell fusion, dose response, cherry-pick (AID 652057); assay type: functional, cell-based
[29] = molecular target: T5, Zinc finger protein mex-5 (Caenorhabditis elegans, UniProt Q9XUB2); assay: MEX-5/TCR-2 RNA interaction inhibitors, dose response, biochemical, C. elegans, fluorescence polarization (AID 1960)
T5 sequence (Q9XUB2 whole entry): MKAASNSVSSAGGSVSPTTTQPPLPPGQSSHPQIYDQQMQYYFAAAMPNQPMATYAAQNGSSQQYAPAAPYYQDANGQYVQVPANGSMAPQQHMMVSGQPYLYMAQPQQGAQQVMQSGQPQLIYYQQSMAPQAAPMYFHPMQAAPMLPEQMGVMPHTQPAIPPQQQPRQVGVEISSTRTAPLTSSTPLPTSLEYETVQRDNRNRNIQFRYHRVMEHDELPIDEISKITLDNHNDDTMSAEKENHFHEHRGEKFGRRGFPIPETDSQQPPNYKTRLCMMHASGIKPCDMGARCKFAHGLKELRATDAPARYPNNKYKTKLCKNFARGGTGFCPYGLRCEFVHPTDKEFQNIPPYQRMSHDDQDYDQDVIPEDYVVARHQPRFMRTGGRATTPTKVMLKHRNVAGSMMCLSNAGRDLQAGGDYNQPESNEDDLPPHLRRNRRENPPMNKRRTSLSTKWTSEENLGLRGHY

[30] = HepG2 cell cytotoxicity, dose response, cytotoxicity control for Shn3 inhibitor project, CellTiter-Glo, cherry-picked (AID 624134); assay type: functional, cell-based
[31] = molecular target: T6, RNA-binding protein pos-1 (Caenorhabditis elegans, UniProt G5EF15); assay: inhibitors of POS-1/mex-3 RNA binding, dose response, biochemical, fluorescence polarization (AID 1964);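 note: purified POS-1 fused to maltose binding protein made in E. coli; potency of compounds blocking POS-1 binding to fluorescent RNA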
T6 sequence (G5EF15 whole entry): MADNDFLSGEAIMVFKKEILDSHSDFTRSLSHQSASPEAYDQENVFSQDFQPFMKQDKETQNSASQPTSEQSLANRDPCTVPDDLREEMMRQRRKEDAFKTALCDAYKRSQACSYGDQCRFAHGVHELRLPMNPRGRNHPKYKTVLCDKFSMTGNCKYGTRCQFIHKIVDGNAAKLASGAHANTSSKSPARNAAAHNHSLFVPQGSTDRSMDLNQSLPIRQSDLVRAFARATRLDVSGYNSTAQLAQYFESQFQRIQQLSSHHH

[32] = Shn3 3'UTR reporter inhibitors, dose response, cell-based, Clone20 osteoblasts, firefly luciferase, cherry-picked (AID 624132); assay type: functional;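 note: firefly luciferase luminescence from reporter carrying the Shn3 3'UTR in osteoblasts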

Chain of Beta-galactosidase (Q8VNN2 whole entry): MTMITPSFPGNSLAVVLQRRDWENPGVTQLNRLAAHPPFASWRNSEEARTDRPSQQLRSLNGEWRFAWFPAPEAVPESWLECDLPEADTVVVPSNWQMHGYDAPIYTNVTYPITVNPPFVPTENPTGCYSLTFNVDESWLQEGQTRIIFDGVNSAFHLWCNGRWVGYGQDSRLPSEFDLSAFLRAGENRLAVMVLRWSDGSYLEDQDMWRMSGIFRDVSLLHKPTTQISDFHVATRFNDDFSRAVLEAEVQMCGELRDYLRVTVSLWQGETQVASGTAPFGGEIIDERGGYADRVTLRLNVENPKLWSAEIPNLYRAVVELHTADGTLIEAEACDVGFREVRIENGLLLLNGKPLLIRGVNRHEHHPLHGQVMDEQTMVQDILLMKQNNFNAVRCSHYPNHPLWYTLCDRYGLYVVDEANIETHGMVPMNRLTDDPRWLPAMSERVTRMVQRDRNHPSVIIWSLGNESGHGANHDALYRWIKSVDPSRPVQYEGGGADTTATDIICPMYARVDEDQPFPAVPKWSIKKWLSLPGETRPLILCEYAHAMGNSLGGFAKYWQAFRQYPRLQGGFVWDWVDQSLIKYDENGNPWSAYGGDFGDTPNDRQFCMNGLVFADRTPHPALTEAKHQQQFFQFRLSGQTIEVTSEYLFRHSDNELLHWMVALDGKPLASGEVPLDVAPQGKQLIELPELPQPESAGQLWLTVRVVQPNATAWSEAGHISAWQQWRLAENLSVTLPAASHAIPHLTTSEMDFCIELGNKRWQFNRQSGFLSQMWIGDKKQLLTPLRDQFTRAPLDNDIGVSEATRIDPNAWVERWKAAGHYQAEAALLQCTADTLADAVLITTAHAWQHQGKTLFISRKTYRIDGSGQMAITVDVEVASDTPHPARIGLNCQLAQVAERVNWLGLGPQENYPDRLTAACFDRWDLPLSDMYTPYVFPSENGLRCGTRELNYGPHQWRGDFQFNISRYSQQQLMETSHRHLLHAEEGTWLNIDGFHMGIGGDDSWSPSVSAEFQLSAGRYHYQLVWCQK

COc1cccc(CN2CCN(C(=O)COc3ccc4ccccc4c3)CC2)c1
EC50 [1]: > 112 µM (not active) | IC50 [2]: > 80 µM (inactive) | EC50 [3]: > 112 µM (not active)

O=C1C(Cl)=C(Cl)C(=O)N1c1ccccc1Cl
IC50 [4]: 3.64 µM (active) | IC50 [5]: 10.2 µM (active) | IC50 [6]: > 100 µM (not active)

O=C1C(Cl)=C(N2CCN(c3ccc(Cl)c(Cl)c3)CC2)C(=O)N1c1ccc(Cl)c(Cl)c1
IC50 [4]: 65.5 µM (active) | IC50 [5]: > 100 µM (not active) | IC50 [6]: > 100 µM (not active)

O=C(/C=C/c1ccccc1)N1CCN(Cc2nc(O)c3ccccc3n2)CC1
IC50 [2]: > 80 µM (inactive) | AC50 [7]: 31.6 µM (inconclusive)

CCCCc1c(C)nc2ccc(Br)cc2c1SCCC#N
CC50 [8]: 16.3 µM (active) | IC50 [9]: > 50 µM (not active)

Oc1c(CN2CCOCC2)ccc2ccccc12
IC50 [10]: > 50 µM (not active)

CC(C)(C)c1cc(CN2CCCC(O)C2)c(O)c(C(C)(C)C)c1 (centres undefined)
EC50 [11]: 15.5 µM (active) | EC50 [12]: 14.9 µM (active)

Cc1cccc(NCCC(=O)c2ccc([N+](=O)[O-])cc2)c1C
IC50 [10]: > 50 µM (not active) | IC50 [13]: 18 µM (active)

Cc1cc(NC(=O)CCNS(=O)(=O)c2cc(Br)cnc2N)ccc1Br
CC50 [8]: > 40 µM (active)

O=C(O)c1cccc(Nc2ccnc(Nc3cccc(C(=O)O)c3)n2)c1
AC50 [14]: 2.56 µM (active) | EC50 [15]: 281 nM (active) | AC50 [16]: 2.9 µM (active) | AC50 [17]: 3.56 µM (active)

COc1ccc(-n2cc(-c3ccccc3)c3c(NN4CCOCC4)ncnc32)cc1
CC50 [18]: > 40 µM (active)

N#CC1=C(N)NC(SCc2ccc(Cl)cc2)=C(C#N)C12CCCCC2
EC50 [11]: 8.84 µM (active) | EC50 [12]: 6.43 µM (active)

COc1cc(CNc2ccc3[nH]c(=O)[nH]c3c2)ccc1OCC(=O)NC(C)(C)C
IC50 [10]: > 50 µM (not active) | EC50 [3]: > 112 µM (not active)

CCOC(=O)c1ccccc1NC(=O)C1COc2ccccc2O1 (centres undefined)
CC50 [18]: > 40 µM (active)

Cc1ccc(NC2=C(Cl)C(=O)N(c3ccc(C)cc3)C2=O)cc1
IC50 [4]: 2.54 µM (active) | IC50 [5]: 1.7 µM (active) | IC50 [6]: > 100 µM (not active)

CN(C)S(=O)(=O)c1ccc(C(=O)Nc2nc(-c3cccs3)cs2)cc1
EC50 [19]: 102 µM (active) | AC50 [20]: 879 nM (active) | AC50 [21]: 9.43 µM (active) | EC50 [22]: 79.7 µM (active) | AC50 [23]: 67.7 µM (active) | AC50 [24]: > 70 µM (inactive)

CCOC(=O)C1=C(N)n2c(s/c(=C/c3ccco3)c2=O)=C(C(=O)OC)C1c1ccco1 (centres undefined)
CC50 [8]: > 40 µM (active)

COc1ccc(C#Cc2ccc([C@@H]3[C@@H](CO)N4CCCCN(C(=O)Nc5ccccc5)C[C@H]34)cc2)cc1
AC50 [25]: 1.29 µM (active) | AC50 [26]: 11.4 µM (active) | AC50 [27]: 6.46 µM (active)

Cc1ccccc1S(=O)(=O)N1[C@H](C#N)[C@H](c2ccc(C#CC3CCCCC3)cc2)[C@H]1CO
AC50 [14]: 13 µM (active) | AC50 [16]: 10.7 µM (active)

CCN(CC)c1ccc(/C=N/N2C(C)CCCC2C)c(O)c1 (centres undefined)
AC50 [28]: 2.22 µM (active) | AC50 [23]: 48.3 µM (active) | AC50 [24]: > 70 µM (inactive)

CN(C)c1ccc(/C=C/c2nc3ccccc3s2)cc1
EC50 [29]: > 300 µM (not active) | AC50 [30]: 25.6 µM (active) | EC50 [1]: 4.65 µM (active) | EC50 [3]: 1.43 µM (active) | EC50 [31]: > 300 µM (not active) | AC50 [32]: 494 nM (active) | CC50 [18]: 25.3 µM (active)

Reference: ChEMBL document CHEMBL1201862, “PubChem BioAssay data set” (2004)
